Measurements reported in patent EP1029854A1, “Oxazolidinones and their use as antibacterial agents” (BAYER AG, priority 1999, dated 2000).
≈ marks a conversion by molar mass, not a printed value.

Tested on: S.aureus 133
Experiment: MIC (MHK) determination by microdilution method in BH medium
Type: cell-based
Conditions: for Wirksameres Diastereomer: qualitative comparison with Diastereomer 2 of the same example, test not named in the heading, presumably the MIC test; for MIC: Staphylococcus aureus, S.aureus 133, microdilution in BH-Medium, 37°C, read after ca. 20 hours or 3 to 5 days, lowest concentration with no visible growth, samples Diastereomer 1 /Diastereomer 2 = 100:1, read-out: MHK-Werte
Procedure: Die MHK-Werte wurden mit Hilfe der Mikrodilutionsmethode in BH-Medium bestimmt. Jede Prüfsubstanz wurde in DMSO gelöst. In der Mikrotiterplatte wurde durch serielle Verdünnung eine Konzentrationsreihe der Prüfsubstanzen angelegt. Zur Inokulation wurden Übernachtkulturen der Erreger verwandt, die zuvor im Nährmedium 1:250 verdünnt wurden. Zu 100 µl der verdünnten, wirkstoffhaltigen Nährlösungen wurden je 100 µl Inokulationslösung gegeben.
Die Mikrotiterplatten wurden bei 37°C bebrütet und nach ca. 20 Stunden oder nach 3 bis 5 Tagen abgelesen. Der MHK-Wert (µg/ml) gibt die niedrigste Wirkstoffkonzentration an, bei der kein Wachstum zu erkennen war.

| MIC [µg/mL] | SMILES | Wirksameres Diastereomer |
| --- | --- | --- |
|  | C#CC(O)[C@H]1CN(c2ccc3c(c2)OCc2nccn2-3)C(=O)O1 (single isomer, unassigned) [Beispiel 2 Diastereomer 1] | Wirksameres Diastereomer |
| 1.5 (≈ 4.79 µM) | C=CC(O)[C@H]1CN(c2ccc3c(c2)OCc2nccn2-3)C(=O)O1 (single isomer, unassigned) [Beispiel 1] |  |
|  | C=CC(O)[C@H]1CN(c2ccc3c(c2)OCc2nccn2-3)C(=O)O1 (single isomer, unassigned) [Beispiel 1 Diastereomer 1] | Wirksameres Diastereomer |
| 1 (≈ 3.21 µM) | C#CC(O)[C@H]1CN(c2ccc3c(c2)OCc2nccn2-3)C(=O)O1 (single isomer, unassigned) [Beispiel 2] |  |
